{"source": "patent US8470351B2", "about": "“Embedding antibiotic compounds in solid polymers” (The Research Foundation of the City University of New York, priority 2007, dated 2013)", "key": {"Escherichia coli": {"system": "Escherichia coli", "experiment": "Antimicrobial assessment of embedded polyester fabric on mineral salts agar", "format": "cell-based", "conditions": "agent embedded in three polyester fabrics (\"144×90\", \"Spandex\" 5% lycra with polyester, \"Darlington\"), incubated at 28° C. for 28 days", "method": "(§1) Three types of polyester fabric are embedded with bis-1′,3′-(1-hexadecyl)-1,4-diazoniabicyclo[2.2.2]octane-2′-propanol tetrachloride. Three polyester samples supplied by Gar are tested—a) “144×90”, b) “Spandex” which is 5% lycra with polyester, and c) “Darlington.” Each fabric sample is placed onto a mineral salts agar medium and then inoculated with either Staphylococus aureus or Escherichia coli. The inoculated specimen is then incubated at 28° C. for 28 days, in order to allow adequate time for bacterial growth. The fabric samples show a complete kill of both Staphylococus aureus and Escherichia coli."}, "Staphylococus aureus": {"system": "Staphylococus aureus", "experiment": "Antimicrobial assessment of embedded polyester fabric on mineral salts agar", "format": "cell-based", "conditions": "agent embedded in three polyester fabrics (\"144×90\", \"Spandex\" 5% lycra with polyester, \"Darlington\"), incubated at 28° C. for 28 days", "method": "as §1"}, "[1]": {"experiment": "Antimicrobial property of PVC surface with embedded agent", "conditions": "agent added to PVC heated to 350° F., 10 g/square meter of finished surface; after pressing and cooling", "method": "To a preparation of PVC prepared for finishing and heated to 350° F. is added the agent bis-1′,3′-(1-hexadecyl)-1,4-diazoniabicyclo[2.2.2]octane-2′-propanol tetrachloride in an amount of 10 g/square meter of finished surface. After pressing and cooling samples the surface is antimicrobial."}}, "data": [{"compound": "CCCCCCCCCCCCCCCC[N+]12CC[N+](CC(O)C[N+]34CC[N+](CCCCCCCCCCCCCCCC)(CC3)CC4)(CC1)CC2.[Cl-].[Cl-].[Cl-].[Cl-]", "note": "(stereo not drawn) [bis-1′,3′-(1-hexadecyl)-1,4-diazoniabicyclo[2.2.2]octane-2′-propanol tetrachloride]", "values": [{"measurement": "kill of Escherichia coli on embedded fabric samples", "setting": "Escherichia coli", "value": "complete kill"}, {"measurement": "kill of Staphylococus aureus on embedded fabric samples", "setting": "Staphylococus aureus", "value": "complete kill"}, {"measurement": "antimicrobial property of the surface", "setting": "[1]", "value": "antimicrobial"}]}]}
